Several values for one entry are separate records, joined by “and”; a condition that tells them apart may be missing. Identical values can stand only once. Toxic doses and inconclusive results are not listed. Rule for the calls: active = survival T/C of 150% or more; inactive = T/C below 125% in these data.
Test system: P388 leukemia ip, CD2F1 mice, survival T/C
Assay: NCI In Vivo Anticancer Drug Screen. Data for tumor model P388 Leukemia (intraperitoneal) in CD2F1 (CDF1) mice
Details: endpoint: median survival time, higher = longer survival
Outline: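 Mice carrying the transplanted tumor received test compound or vehicle. Survival was recorded in each group, and the value is the treated-group measurement divided by that of the vehicle-treated control group.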

[1] = dose: 50.0 mg/kg/injection, schedule: Q01DX005 (ip), vehicle: Klucel (hydroxypropylcellulose) (HPC)
[2] = dose: 100.0 mg/kg/injection, schedule: Q01DX005 (ip), vehicle: Klucel (hydroxypropylcellulose) (HPC)
[3] = dose: 60.0 mg/kg/injection, schedule: Q01DX005 (ip), vehicle: Klucel (hydroxypropylcellulose) (HPC)
[4] = dose: 120.0 mg/kg/injection, schedule: Q01DX005 (ip), vehicle: Klucel (hydroxypropylcellulose) (HPC)
[5] = dose: 50.0 mg/kg/injection, schedule: Q01DX009 (ip), vehicle: saline with Tween-80
[6] = dose: 100.0 mg/kg/injection, schedule: Q01DX009 (ip), vehicle: saline with Tween-80
[7] = dose: 200.0 mg/kg/injection, schedule: Q01DX009 (ip), vehicle: saline with Tween-80
[8] = dose: 60.0 mg/kg/injection, schedule: Q01DX005 (ip), vehicle: saline with Tween-80
[9] = dose: 120.0 mg/kg/injection, schedule: Q01DX005 (ip), vehicle: saline with Tween-80
[10] = dose: 50.0 mg/kg/injection, schedule: Q01DX009 (ip), vehicle: Klucel (hydroxypropylcellulose) (HPC)
[11] = dose: 100.0 mg/kg/injection, schedule: Q01DX009 (ip), vehicle: Klucel (hydroxypropylcellulose) (HPC)
[12] = dose: 200.0 mg/kg/injection, schedule: Q01DX009 (ip), vehicle: Klucel (hydroxypropylcellulose) (HPC)
[13] = dose: 100.0 mg/kg/injection, schedule: Q04DX003 (ip), vehicle: Klucel (hydroxypropylcellulose) (HPC)
[14] = dose: 200.0 mg/kg/injection, schedule: Q04DX003 (ip), vehicle: Klucel (hydroxypropylcellulose) (HPC)

Measured: T/C

CNC(C)C1(O)Cc2c(O)c3c(c(O)c2C(OC2CC(N)C(O)C(C)O2)C1)C(=O)c1c(OC)cccc1C3=O (stereo unspecified)
inactive: dose: 16.0 mg/kg/injection, schedule: Q01DX009 (ip), vehicle: water 95 % of control
active: dose: 4.0 mg/kg/injection, schedule: Q01DX009 (ip), vehicle: water 150 % of control | dose: 8.0 mg/kg/injection, schedule: Q01DX009 (ip), vehicle: water 157 % of control and 161 % of control

O=C(NCCCC(CCCNC(=O)c1ccccc1)(C(=O)O)C(=O)O)c1ccccc1
inactive: [1] 106 % of control | [2] 109 % of control | dose: 200.0 mg/kg/injection, schedule: Q01DX005 (ip), vehicle: Klucel (hydroxypropylcellulose) (HPC) 104 % of control

COC1(OC)C(c2ccccc2)C(C#N)(C#N)C1(OC)OC (stereo unspecified)
inactive: [3] 102 % of control | [4] 100 % of control | dose: 240.0 mg/kg/injection, schedule: Q01DX005 (ip), vehicle: Klucel (hydroxypropylcellulose) (HPC) 99 % of control

CC(N)c1ccccc1 (stereo unspecified) (tested in a mixture with another compound)
inactive: [5] 104 % of control | [6] 99 % of control | [7] 99 % of control

O=c1c(Cc2c(-c3ccccc3)[nH]c3ccccc23)coc2ccccc12
inactive: [8] 90 % of control | [9] 89 % of control

COc1ccc(C2OC3=C(Nc4cc(C)c(C)cc4N3)C2=O)cc1 (stereo unspecified)
inactive: [3] 89 % of control | [4] 89 % of control

CC1=CC(O)C(O)C2(C)C1CC1OC(=O)C(OC(=O)CC(C)C)C3C(C)C(O)C4(O)OCC13C42 (stereo unspecified) (tested in a mixture with another compound)
inactive: dose: 125.0 micrograms/kg/injection, schedule: Q01DX009 (ip), vehicle: other 104 % of control | dose: 250.0 micrograms/kg/injection, schedule: Q01DX009 (ip), vehicle: other 102 % of control | dose: 500.0 micrograms/kg/injection, schedule: Q01DX009 (ip), vehicle: other 103 % of control | dose: 1000.0 micrograms/kg/injection, schedule: Q01DX009 (ip), vehicle: other 108 % of control

O=C(Nc1ncc([N+](=O)[O-])s1)c1cc(Cl)cc(Cl)c1
inactive: dose: 12.5 mg/kg/injection, schedule: Q01DX005 (ip), vehicle: Klucel (hydroxypropylcellulose) (HPC) 104 % of control | dose: 25.0 mg/kg/injection, schedule: Q01DX005 (ip), vehicle: Klucel (hydroxypropylcellulose) (HPC) 100 % of control | [1] 100 % of control and 101 % of control

S=c1[nH]c2ccccc2n1CCc1ccncc1
inactive: dose: 25.0 mg/kg/injection, schedule: Q01DX007 (ip), vehicle: Klucel (hydroxypropylcellulose) (HPC) 104 % of control | dose: 25.0 mg/kg/injection, schedule: Q01DX008 (ip), vehicle: Klucel (hydroxypropylcellulose) (HPC) 103 % of control | dose: 50.0 mg/kg/injection, schedule: Q01DX007 (ip), vehicle: Klucel (hydroxypropylcellulose) (HPC) 104 % of control | dose: 50.0 mg/kg/injection, schedule: Q01DX008 (ip), vehicle: Klucel (hydroxypropylcellulose) (HPC) 106 % of control | [10] 93 % of control | dose: 100.0 mg/kg/injection, schedule: Q01DX007 (ip), vehicle: Klucel (hydroxypropylcellulose) (HPC) 99 % of control | dose: 100.0 mg/kg/injection, schedule: Q01DX008 (ip), vehicle: Klucel (hydroxypropylcellulose) (HPC) 100 % of control | [11] 94 % of control | dose: 200.0 mg/kg/injection, schedule: Q01DX007 (ip), vehicle: Klucel (hydroxypropylcellulose) (HPC) 106 % of control | dose: 200.0 mg/kg/injection, schedule: Q01DX008 (ip), vehicle: Klucel (hydroxypropylcellulose) (HPC) 106 % of control | [12] 94 % of control

O=C1OCC2CC3C4C=CC(C4)C3C12 (stereo unspecified)
inactive: [1] 103 % of control | [2] 93 % of control

N=C(N)c1ccc2[nH]c(/C=C/c3cc4cc(C(=N)N)ccc4o3)cc2c1
active: dose: 25.0 mg/kg/injection, schedule: Q04DX003 (ip), vehicle: suspension in saline 163 % of control | dose: 50.0 mg/kg/injection, schedule: Q04DX003 (ip), vehicle: suspension in saline 160 % of control | dose: 100.0 mg/kg/injection, schedule: Q04DX003 (ip), vehicle: suspension in saline 163 % of control

CCCC(=O)Nc1ccccc1
inactive: [5] 100 % of control | [6] 100 % of control | [7] 93 % of control

CCn1c2ccccc2c2ccc(N=Cc3ccc([N+](=O)[O-])cc3)cc21
inactive: [10] 99 % of control | [11] 100 % of control | [12] 99 % of control

CCN(CC)C(=O)N1C=CC(C)C=C1
inactive: [8] 100 % of control | [9] 101 % of control

Cc1ccc(S(=O)(=O)Oc2ccc3sc4cccc(NCCN(C)C)c4c(=O)c3c2)cc1
inactive: dose: 12.5 mg/kg/injection, schedule: Q01DX005 (ip), vehicle: saline with Tween-80 104 % of control | dose: 25.0 mg/kg/injection, schedule: Q01DX005 (ip), vehicle: saline with Tween-80 93 % of control | dose: 50.0 mg/kg/injection, schedule: Q01DX005 (ip), vehicle: saline with Tween-80 90 % of control and 96 % of control | dose: 100.0 mg/kg/injection, schedule: Q01DX005 (ip), vehicle: saline with Tween-80 92 % of control and 94 % of control | dose: 200.0 mg/kg/injection, schedule: Q01DX005 (ip), vehicle: saline with Tween-80 92 % of control | dose: 400.0 mg/kg/injection, schedule: Q01DX005 (ip), vehicle: saline with Tween-80 94 % of control

O=C(OCCn1c(=O)n(CCOC(=O)c2cccc([N+](=O)[O-])c2)c(=O)n(CCOC(=O)c2cccc([N+](=O)[O-])c2)c1=O)c1cccc([N+](=O)[O-])c1
inactive: [13] 93 % of control | [14] 86 % of control | dose: 400.0 mg/kg/injection, schedule: Q04DX003 (ip), vehicle: Klucel (hydroxypropylcellulose) (HPC) 87 % of control

Cc1ccc(C)c2c3c([nH]c12)-c1ccccc1CC3
inactive: [5] 103 % of control | [6] 107 % of control | [7] 103 % of control

CCOC(=O)CCOc1ccccc1N(CCCl)CCCl
active: dose: 3.13 mg/kg/injection, schedule: Q04DX003 (ip), vehicle: saline with Tween-80 150 % of control | dose: 6.25 mg/kg/injection, schedule: Q04DX003 (ip), vehicle: saline with Tween-80 163 % of control

CCOC(=O)N1C=CC2(C=C1)CCCC2
inactive: dose: 50.0 mg/kg/injection, schedule: Q01DX001 (ip), vehicle: Klucel (hydroxypropylcellulose) (HPC) 108 % of control | dose: 100.0 mg/kg/injection, schedule: Q01DX001 (ip), vehicle: Klucel (hydroxypropylcellulose) (HPC) 102 % of control | dose: 200.0 mg/kg/injection, schedule: Q01DX001 (ip), vehicle: Klucel (hydroxypropylcellulose) (HPC) 102 % of control

c1ccc2sc(N3CCCCC3)nc2c1
inactive: dose: 25.0 mg/kg/injection, schedule: Q04DX003 (ip), vehicle: Klucel (hydroxypropylcellulose) (HPC) 105 % of control | dose: 50.0 mg/kg/injection, schedule: Q01DX009 (ip), vehicle: saline 104 % of control | dose: 50.0 mg/kg/injection, schedule: Q04DX003 (ip), vehicle: Klucel (hydroxypropylcellulose) (HPC) 99 % of control | dose: 100.0 mg/kg/injection, schedule: Q01DX009 (ip), vehicle: saline 104 % of control | [13] 100 % of control | dose: 200.0 mg/kg/injection, schedule: Q01DX009 (ip), vehicle: saline 103 % of control | [14] 109 % of control

COc1cc(OC2OC(COC3OC(CO)C(O)C(O)C3O)C(O)C(O)C2O)c2c(c1)C(=O)c1cc(C)cc(O)c1C2=O (stereo unspecified)
inactive: dose: 25.0 mg/kg/injection, schedule: Q01DX005 (ip), vehicle: water 100 % of control | dose: 50.0 mg/kg/injection, schedule: Q01DX005 (ip), vehicle: water 98 % of control | dose: 100.0 mg/kg/injection, schedule: Q01DX005 (ip), vehicle: water 98 % of control | dose: 200.0 mg/kg/injection, schedule: Q01DX005 (ip), vehicle: water 96 % of control

N#[N+]c1c(C(=O)O)[nH]c(=O)[nH]c1=O
inactive: dose: 16.0 mg/kg/injection, schedule: Q01DX009 (ip), vehicle: saline sonified 109 % of control | dose: 32.0 mg/kg/injection, schedule: Q01DX009 (ip), vehicle: saline sonified 104 % of control | dose: 64.0 mg/kg/injection, schedule: Q01DX009 (ip), vehicle: saline sonified 100 % of control | dose: 125.0 mg/kg/injection, schedule: Q01DX009 (ip), vehicle: saline sonified 104 % of control | dose: 250.0 mg/kg/injection, schedule: Q01DX009 (ip), vehicle: saline sonified 109 % of control | dose: 500.0 mg/kg/injection, schedule: Q01DX009 (ip), vehicle: saline sonified 104 % of control

Source: PubChem BioAssay AID330 (DTP/NCI, 2004)
